From patent US20170298051A1, “ACTIVATOR OF ADIPONECTIN RECEPTOR” (THE UNIVERSITY OF TOKYO, priority 2013, published 2017)

T1: AdipoR1 (Mus musculus, UniProt Q91VH1)
T1 construct: C2C12 cells (ATCC; CRL-1772, medium; host or cells: differentiated C2C12
T1 sequence (Q91VH1 1-375): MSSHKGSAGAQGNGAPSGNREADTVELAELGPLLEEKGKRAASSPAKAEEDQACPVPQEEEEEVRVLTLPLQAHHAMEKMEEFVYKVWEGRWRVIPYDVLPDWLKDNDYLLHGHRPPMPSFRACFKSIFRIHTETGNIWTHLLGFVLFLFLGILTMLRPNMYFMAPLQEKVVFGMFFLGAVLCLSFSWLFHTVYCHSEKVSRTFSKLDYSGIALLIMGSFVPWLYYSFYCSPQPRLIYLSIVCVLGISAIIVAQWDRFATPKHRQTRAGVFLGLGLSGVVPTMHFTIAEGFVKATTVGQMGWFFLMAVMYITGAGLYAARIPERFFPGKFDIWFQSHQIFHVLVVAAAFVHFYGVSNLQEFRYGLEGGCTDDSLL


Legend:
AdipoR1 [1] = biological target: T1, AdipoR1; assay: Measurement of AMPK phosphorylation ability (Assay 1), differentiated C2C12 cells, Western blotting; assay type: cell-based; conditions: 10 μM, 10 minutes
Protocol: The AMPK phosphorylation ability of the respective compounds according to the present invention was measured by using differentiated C2C12 cells or HEK 293T cells.
C2C12 cells (ATCC; CRL-1772, medium; DMEM, 10% FBS) were cultured in a 12- or 24-well plate until they reached 100% confluency (37° C., 5% CO2).
The medium was changed to 2.5% Horse Serum (HS) and differentiation was started. The medium (DMEM, 2.5% HS) was replaced every three days.
After starvation, a test compound listed in Table 12 (concentration: 10 μM) was added thereto, and after 10 minutes, the medium was discarded and the plate was frozen with liquid nitrogen.
To the 12- or 24-well cell plate which had been frozen was added 100 or 150 μL of Cell lysis buffer pH 7.4 (50 mM HEPES (pH 7.4), 2 mM sodium orthovanadate, 10 mM sodium pyrophosphate, 10 mM NaF, 2 mM EDTA, 2 mM EGTA, 0.1% (v/v) NP-40, 0.2 mM PMSF), and the cells were scraped off with a cell scraper, suspended and transferred into a micro centrifugal tube. And then, the cells were ultrasonically crushed (1 second×3 times) with a sonicator. Centrifugation was performed at 4° C. at 15,000 rpm for 15 minutes, and the supernatant was recovered into a new tube.
To 100 μL of the supernatant was added 25 μL of 5× sample buffer (280 mM Tris-HCl (pH 6.9), 40% glycerol, 10% (3-mercaptoethanol, 13% SDS, a small amount of bromophenol blue) and mixed together. The rest of the supernatant was used for protein quantification, and the protein concentrations were uniformed by adding 1× sample buffer depending on the concentration of each sample.
An electrophoresis chamber was filled with 1× SDS buffer (25 mM Tris-HCl, 250 mM glycine, 0.1% SDS), and the sample was applied to a well of polyacrylamide gel. Electrophoresis was performed until the bromophenol blue in the sample reached to the bottom of the gel.
A filter paper was soaked in 1× Transfer buffer sufficiently, above which the PVDF membrane and the gel after electrophoresis were stacked in this order, and thereabove a filter paper which had been soaked in 1× Transfer buffer sufficiently was further stacked, from which an air was removed and the resultant was set in semi-dry type transfer apparatus and transferred (7V, 35 minutes).
An unnecessary portion of the blotted membrane was cutoff, and the rest was immediately soaked in blocking buffer (5% skimmed milk in Rinse buffer), and shaken at room temperature at 40 rpm for 3 hours.
After blocking, the membrane was transferred into Rinse buffer, and washed at room temperature for 10 minutes while shaking. The membrane was soaked in a primary antibody solution (AMPK alpha Antibody (Cell signaling; #2532) 1/1,000 in Rinse buffer, Phospho-AMPK alpha (Thr172) (40H9) antibody (Cell signaling; #2535) 1/1,000 in Rinse buffer), and shaken at 4° C. at 40 rpm overnight.
The membrane was soaked in a secondary antibody solution (goat anti-rabbit IgG-HRP Antibody (Santa Cruz; sc-2030) 1/2,000 in Rinse buffer), and shaken at room temperature at 40 rpm for 1 hour.
After the membrane was washed for 45 minutes in the same way as after the primary antibody reaction, the membrane was soaked in a chemiluminescent reaction solution (ECL Western Blotting Detection Reagents, GE Healthcare) for about 1 minute. An excess of the reaction solution was removed, and then the membranes were arranged on a transparent film and sandwiched with it, with which an X-ray film was exposed in a darkroom (for about several seconds to 60 seconds) to develop the film.
The X-ray film was scanned to take the image, for which the band was measured by using the image analysis software “Image J” to determine the respective amounts of pAMPK and AMPK.

AdipoR1 [2] = assay: Measurement of AMPK phosphorylation ability (Assay 2), C2C12 cells with unrelated or AdipoR1 siRNA; assay type: cell-based, Mouse
Protocol: C2C12 cells (ATCC; CRL-1772, medium; DMEM, 10% Fetal Bovine Serum (FBS)) were cultured in a 12- or 24-well plate until they reached 100% confluency (37° C., 5% CO2). The medium was changed to DMEM, 2.5% Horse Serum (HS) and differentiation was started. The medium (DMEM, 2.5% HS) was replaced two days after the start of differentiation. The medium (DMEM, 2.5% HS) was further replaced two days after that.
On the next day following the replacement of the medium, first, 1 μL of Lipofectamine RNAiMAX and 50 μL of OPTI-MEM were mixed, and then 5 μM siRNA (sense siRNA sequence: […]tt (SEQ ID NO: 1)) and 50 μL of OPTI-MEM were mixed and the resultants were left to stand at room temperature for 5 minutes. And then, the 1 μL Lipofectamine RNAiMAX/50 μL OPTI-MEM and the 5 μM siRNA/50 μL OPTI-MEM were mixed, and the resultant was left to stand at room temperature for 10 minutes, which was added to the cells.
After 5 minutes, the medium (DMEM, 2.5 HS) was replaced, and after starvation on the next day, a test compound listed in Table 12 was added thereto. After 10 minutes, the medium was discarded and the plate was frozen with liquid nitrogen.
The respective amounts of pAMPK and AMPK were determined in the same way as in the above Assay 1.

[3] = tested on: HF diet-induced obese mice; assay: Oral glucose tolerance test and insulin tolerance in HF diet-induced obese mice; assay type: in vivo; conditions: mice, FIG. 7
Protocol: The original Adipor1^+/−/Adipor2^+/− mice (C57BL/6 and 129/Sv mixed background)^a were backcrossed with C57B1/6 mice more than seven times. All experiments in this study were conducted on male littermates.
(§1) Mice were 6-10 week of age at the time of the experiment. They were housed in cages and maintained on a 12 hr light-dark cycle.
(§2) Plasma glucose levels were determined by using a glucose B-test (Wako Pure Chemical Industries). Plasma insulin was measured with an insulin immunoassay (Shibayagi). Plasma NEFAs (Wako Pure Chemical Industries) were assayed by enzymatic methods.
(§3) The oral glucose tolerance test (OGTT) and insulin tolerance test (ITT) were conducted as previously described^a,b with slight modifications. The areas of the glucose and insulin curves were calculated by multiplying the cumulative mean height of the glucose values (1 mg/ml=1 cm) and insulin values (1 ng/ml=1 cm), respectively, by time (60 min=1 cm)^c,a. The insulin resistance index was calculated from the product of the areas of glucose and insulin×10^−2 in the glucose tolerance test. The results are expressed as the percentage of the value respect to control littermates.

Lepr−/− (db/db) mice = assay: Anti-diabetic effects in db/db mice; assay type: in vivo; conditions: intraperitoneal (IP) injection
Protocol: as §1
Male Lepr^−/− (aged 6-10 week) were purchased from Jackson Laboratory. When the mice in the same genotype received different treatments, they were randomly assigned to treatment groups.
as §2, §3

| pAMPK/AMPK (%) (AdipoR1 [1]) | Molecule | pAMPK/AMPK (ratio) siRNA, AdipoR1 siRNA (AdipoR1 [2]) [ratio] | pAMPK/AMPK (ratio) siRNA, unrelated siRNA (AdipoR1 [2]) [ratio] | glucose intolerance and insulin resistance [3] | plasma glucose level (Lepr−/− (db/db) mice) |
| --- | --- | --- | --- | --- | --- |
| 86.43 | COc1ccc(CN2CCN(C(=O)CCNC(=O)c3ccc(C(C)(C)C)cc3)CC2)cc1 [Compound 74, 4-tert-butyl-N-(3-{4-[(4-methoxyphenyl)methyl]piperazin-1-yl}-3-oxopropyl) benzamide] | 2.07 | 3.70 | could improve glucose intolerance as well as insulin resistance |  |
| 83.18 | O=C(NC1CCCC1)c1ccc(OC2CCN(Cc3cccc(O)c3)CC2)c(Cl)c1 [No. 251327] | 3.15 | 2.85 |  |  |
| 81.90 | O=C(NCC[C@@H]1C[C@@H]2C=C[C@H]1C2)c1ccc(OC2CCN(Cc3ccccn3)CC2)cc1 [No. 260544] | 4.12 | 3.79 |  |  |
| 80.62 | O=C(NCCc1ccc(Cl)cc1)c1ccc(OC2CCN(Cc3ccccn3)CC2)cc1 [No. 264785] | 3.58 | 3.70 |  |  |
| 80.12 | O=C(NC1CCCC1)c1ccc(OC2CCN(Cc3ccoc3)CC2)c(Cl)c1 [No. 268508] | 2.87 | 2.58 |  |  |
| 86.36 | C#CCN(Cc1ccco1)C(=O)c1ccc(OC2CCN(Cc3ccccn3)CC2)cc1 [No. 268949] | 2.82 | 3.10 |  |  |
| 91.22 | COc1ccccc1CN1CCC(Oc2ccc(C(=O)NC3CCCC3)cc2Cl)CC1 [No. 272299] | 2.60 | 2.83 |  |  |
| 84.20 | CC#CCN(Cc1ccco1)C(=O)c1ccc(OC2CCN(Cc3ccccn3)CC2)cc1 [No. 272350] | 2.54 | 2.03 |  |  |
| 81.64 | COCCNC(=O)c1ccc(OC2CCN(Cc3cc(OC)ccc3F)CC2)c(Cl)c1 [No. 274971] | 2.51 | 2.38 |  |  |
| 89.26 | CCc1ccc(CN2CCC(Oc3ccc(C(=O)NCCOC)cc3Cl)CC2)cc1 [No. 466151] | 1.94 | 2.22 |  |  |
| 85.03 | COCCNC(=O)c1ccc(OC2CCN(Cc3cc4ccccc4o3)CC2)c(Cl)c1 [No. 473771] | 2.39 | 1.67 |  |  |
| 81.88 | COCCNC(=O)c1ccc(OC2CCN(Cc3cccc4nonc34)CC2)c(Cl)c1 [No. 484140] | 2.30 | 2.34 |  |  |
| 90.14 | Cc1cccc(CN2CCC(Oc3ccc(C(=O)NC4CCCC4)cc3Cl)CC2)n1 [No. 492284] | 1.88 | 2.05 |  |  |
| 80.04 | O=C(NC1CCN(Cc2ccccc2)CC1)c1ccc(Cl)c(Cl)c1 [No. 550212] | 2.14 | 1.91 |  |  |
|  | adiponectin: antidiabetic and antiatherogenic adipokine; mouse full-length adiponectin was generated as previously described (protein, UniProt Q60994 1-247, looked up, full-length, antidiabetic and antiatherogenic adipokine; mouse full-length adiponectin was generated as previously described) MLLLQALLFLLILPSHAEDDVTTTEELAPALVPPPKGTCAGWMAGIPGHPGHNGTPGRDGRDGTPGEKGEKGDAGLLGPKGETGDVGMTGAEGPRGFPGTPGRKGEPGEAAYVYRSAFSVGLETRVTVPNVPIRFTKIFYNQQNHYDGSTGKFYCNIPGLYYFSYHITVYMKDVKVSLFKKDKAVLFTYDQYQEKNVDQASGSVLLHLEVGDQVWLQVYGDGDHNGLYADNVNDSTFTGFLLYHDTN |  |  |  | decreased plasma glucose level |
